Results on 12 compounds are retold here after US20220047569A1, “METHOD AND COMPOUND FOR USE, IN TREATING AND/OR PREVENTING NETOSIS” (Jubilant EpiPad LLC, priority 2020, published 2022).

The assay has as its system Histone H3 Citrullination in Neutrophils. Description: Citrullination ELISA (Citrullinated Histone H3) in calcium ionophore stimulated neutrophils. It is filed as cell-based. Particulars: Neutrophil; human neutrophils, 25 μM calcium ionophore, CitH3 ELISA. Here is the method:
Neutrophils were isolated according to the EasySep Direct Human Neutrophil Isolation Kit. In short, 50 mL of blood sample was drawn in a vacutainer containing K2EDTA from a healthy donor. To the whole blood, the isolation cocktail of 50 μL/mL was added. Then, in the next step 50 μL/mL of RapidSpheres™ was added to the sample. The sample was mixed evenly with the pipette and incubated for 10 minutes at room temperature. After incubation, PBS containing 1 mM EDTA was added at the ratio of 1:1 to the blood. Then the sample tube was incubated for 10 minutes. The enriched cell suspension was transferred into a new tube and RapidSpheres™ were added at 50 μL/mL to this suspension, mixed and incubated for 10 minutes at room temperature. At this step, the enriched cell suspension was carefully collected as a clear fraction into a fresh tube. Then, previous tube was replaced with the fresh tube containing enriched cell suspension. After the final separation, the clear solution of enriched cell suspension was carefully transferred to fresh tube which was ready to use for the experiment. These cells were then subjected to wash twice with plain RPMI 1640 media without Fetal Bovine Serum (FBS) and centrifuged at 1500 rpm for 5 minutes at room temperature. Cell counts were performed on each sample by Invitrogen cell counter. After the cell count, cell density was adjusted according to the experiment and re-suspended in complete RPMI media containing RPMI1640, 2% BSA and 1 mM CaCl2.
Freshly isolated neutrophils from human donor were seeded at a density of 0.5×10^6 cells in 400 μL cell suspension/well in a 24-well plate and cells were pre-incubated with the compound for 30 minutes by adding 50 μL of the 10× concentration to achieve the final 1× concentration of compound (10 μM, 1 μM and 0.1 μM). 1% DMSO was added in control wells. Then, the cells were stimulated in the presence and absence of calcium ionophore by adding 50 μL/well to achieve the final concentration of 25 μM. Upon incubation for 30 minutes with calcium ionophore, S7 nuclease was added to the wells and incubated for 10 minutes to disrupt NET DNA. Following incubation, 10 μL of 1 mM EDTA was added to inactivate nuclease. Cells were scrapped gently and transferred to the tubes, followed by centrifugation at 1500 rpm for 5 minutes. After centrifugation, supernatant was discarded, and 200 μL of lysis buffer containing PBS and 1× Protease inhibitor was added to the tubes. The obtained lysis was then subjected to mechanical shearing using Geno grinder by spin the plate at 2500 rpm for 10 minutes, followed by collection of supernatant and stored at −20° C. or immediately used for ELISA.
ELISA was performed as per Citrullinated Histone H3 ELISA Kit. All the buffer components from the kit were dissolved according to the manufactures protocol. ELISA Buffer Concentrate (10×) (Item No. 400060) and Wash Buffer Concentrate (400×) (Item No. 400060) along with polysorbate 20 (2000×) (Item No. 400035) was diluted to 1× with milliQ water. The standard for use in the ELISA was prepared as follows: • Obtain eight clean test tubes and label them, #1 through #8. Aliquot 4.9 mL of ELISA Buffer into tube #1. • Aliquot 500 μL of ELISA Buffer into the tubes #2-8. […] This tube is considered as blank, the lowest point on the standard curve.
100 μL of standards or diluted sample was added to the appropriate wells on the 96-well plate. Plates were covered with 96-well cover sheet and incubated for two hours at room temperature on an orbital shaker. The samples and standard were removed from the wells and washed four times with Wash Buffer. After the last wash, Anti-Histone H3 HRP Conjugate (Item No. 501441) (10×) stock solution was diluted in 1×ELISA buffer and 100 μL of the HRP Conjugate working solution was added to each well of the plate and incubated for one hour at room temperature on an orbital shaker. […]

With `Cc1c(-c2cc3ccccc3n2CC(C)C)nc2cc(C(=O)N3CCC[C@@H](N)C3)ccn12` [Compound 60, (R)-(3-aminopiperidin-1-yl)(2-(1-isobutyl-1H-indol-2-yl)-3-methylimidazo[1,2-a]pyridin-7-yl)methanone], the IC50 was over 1 µM.
As for `Cc1c(-c2cc3ccccc3n2CC2CCC2)nc2cc(C(=O)N3CCC[C@@H](N)C3)ccn12` [Compound 61, (R)-(3-aminopiperidin-1-yl)(2-(1-(cyclobutylmethyl)-1H-indol-2-yl)-3-methylimidazo[1,2-a]pyridin-7-yl)methanone], the figure is over 1 µM; as for `Cc1c(-c2cc3ccccc3n2Cc2ncccc2F)nc2cc(C(=O)N3CCC[C@@H](N)C3)ccn12` [Compound 62, (R)-(3-aminopiperidin-1-yl)(2-(1-((3-fluoropyridin-2-yl)methyl)-1H-indol-2-yl)-3-methylimidazo[1,2-a]pyridin-7-yl)methanone], 0.1 to 1 µM; as for `CCn1c(-c2nc3cc(C(=O)N4CCC[C@@H](N)C4)ccn3c2C)cc2ccc(OC)cc21` [Compound 67, (R)-(3-aminopiperidin-1-yl)(2-(1-ethyl-6-methoxy-1H-indol-2-yl)-3-methylimidazo[1,2-a]pyridin-7-yl)methanone], over 1 µM.
To `Cc1c(-c2cc3ccc(F)cc3n2Cc2ccncc2)nc2cc(C(=O)N3CCC[C@@H](N)C3)ccn12` [Compound 68, (R)-(3-aminopiperidin-1-yl)(2-(6-fluoro-1-(pyridin-4-ylmethyl)-1H-indol-2-yl)-3-methylimidazo[1,2-a]pyridin-7-yl)methanone] belongs under 0.1 µM; to `Cc1c(-c2cc3ccc(F)cc3n2Cc2cccnc2)nc2cc(C(=O)N3CCC[C@@H](N)C3)ccn12` [Compound 69, (R)-(3-aminopiperidin-1-yl)(2-(6-fluoro-1-(pyridin-3-ylmethyl)-1H-indol-2-yl)-3-methylimidazo[1,2-a]pyridin-7-yl)methanone], 0.1 to 1 µM; to `COc1cccc(Cn2c(-c3nc4cc(C(=O)N5CCC[C@@H](N)C5)ccn4c3C)cc3ccc(F)cc32)c1` [Compound 70, (R)-(3-aminopiperidin-1-yl)(2-(6-fluoro-1-(3-methoxybenzyl)-1H-indol-2-yl)-3-methylimidazo[1,2-a]pyridin-7-yl)methanone], under 0.1 µM.
Take `COc1ccc(Cn2c(-c3nc4cc(C(=O)N5CCC[C@@H](N)C5)ccn4c3C)cc3ccc(F)cc32)cc1` [Compound 71, (R)-(3-aminopiperidin-1-yl)(2-(6-fluoro-1-(4-methoxybenzyl)-1H-indol-2-yl)-3-methylimidazo[1,2-a]pyridin-7-yl)methanone]: the IC50 was over 1 µM.
As for `CCn1c(-c2nc3cc(C(=O)N4CCC[C@@H](N)C4)ccn3c2C)cc2ccc(F)cc21` [Compound 72, (R)-(3-aminopiperidin-1-yl)(2-(1-ethyl-6-fluoro-1H-indol-2-yl)-3-methylimidazo[1,2-a]pyridin-7-yl)methanone], the figure is 0.1 to 1 µM.
As for `Cc1c(-c2cc3cc(F)ccc3n2Cc2ccncc2)nc2cc(C(=O)N3CCC[C@@H](N)C3)ccn12` [Compound 74, (R)-(3-aminopiperidin-1-yl)(2-(5-fluoro-1-(pyridin-4-ylmethyl)-1H-indol-2-yl)-3-methylimidazo[1,2-a]pyridin-7-yl)methanone], the figure is over 1 µM.
For the compound `COc1ccc(Cn2c(-c3nc4cc(C(=O)N5CCC[C@@H](N)C5)ccn4c3C)cc3cc(F)ccc32)cc1` [Compound 75, (R)-(3-aminopiperidin-1-yl)(2-(5-fluoro-1-(4-methoxybenzyl)-1H-indol-2-yl)-3-methylimidazo[1,2-a]pyridin-7-yl)methanone], the IC50 was 0.1 to 1 µM.
Regarding `Cc1c(-c2cc3cc(F)ccc3n2Cc2ccc(F)cc2)nc2cc(C(=O)N3CCC[C@@H](N)C3)ccn12` [Compound 76, (R)-(3-aminopiperidin-1-yl)(2-(5-fluoro-1-(4-fluorobenzyl)-1H-indol-2-yl)-3-methylimidazo[1,2-a]pyridin-7-yl)methanone], the IC50 was over 1 µM.
